The text below walks through data of ChEMBL document CHEMBL4261613, “Discovery of a potent orally bioavailable retinoic acid receptor-related orphan receptor-gamma-t (RORγt) inhibitor, S18-000003” (Bioorg Med Chem Lett, 2018).

In brackets after ≈: the same amount, converted by molar mass.

Series [1] has as its target T1, Nuclear receptor ROR-beta (Homo sapiens, UniProt Q92753).
T1 sequence (Q92753 whole entry): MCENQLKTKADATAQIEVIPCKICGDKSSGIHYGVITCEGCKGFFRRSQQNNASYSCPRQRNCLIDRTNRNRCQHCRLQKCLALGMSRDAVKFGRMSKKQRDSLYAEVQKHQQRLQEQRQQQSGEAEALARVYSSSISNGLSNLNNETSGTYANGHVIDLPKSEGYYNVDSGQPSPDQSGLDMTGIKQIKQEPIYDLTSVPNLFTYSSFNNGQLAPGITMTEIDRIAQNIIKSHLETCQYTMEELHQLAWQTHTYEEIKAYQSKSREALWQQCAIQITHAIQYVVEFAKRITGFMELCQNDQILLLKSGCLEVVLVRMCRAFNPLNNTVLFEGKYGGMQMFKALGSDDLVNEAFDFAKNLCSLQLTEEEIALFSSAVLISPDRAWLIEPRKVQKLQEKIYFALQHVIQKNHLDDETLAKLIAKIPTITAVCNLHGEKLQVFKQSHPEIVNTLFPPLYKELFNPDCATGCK
The series is described as follows: Transrepression of recombinant human GAL4-DBD fused RORbeta LBD expressed in HEK293 cells after 20 hrs by luciferase reporter gene assay. The class given is cell-based. For orientation: A reporter such as luciferase makes a cellular process visible.

Series [2] deals with T2, Nuclear receptor ROR-gamma (Homo sapiens) (UniProt P51449).
T2 sequence (whole entry): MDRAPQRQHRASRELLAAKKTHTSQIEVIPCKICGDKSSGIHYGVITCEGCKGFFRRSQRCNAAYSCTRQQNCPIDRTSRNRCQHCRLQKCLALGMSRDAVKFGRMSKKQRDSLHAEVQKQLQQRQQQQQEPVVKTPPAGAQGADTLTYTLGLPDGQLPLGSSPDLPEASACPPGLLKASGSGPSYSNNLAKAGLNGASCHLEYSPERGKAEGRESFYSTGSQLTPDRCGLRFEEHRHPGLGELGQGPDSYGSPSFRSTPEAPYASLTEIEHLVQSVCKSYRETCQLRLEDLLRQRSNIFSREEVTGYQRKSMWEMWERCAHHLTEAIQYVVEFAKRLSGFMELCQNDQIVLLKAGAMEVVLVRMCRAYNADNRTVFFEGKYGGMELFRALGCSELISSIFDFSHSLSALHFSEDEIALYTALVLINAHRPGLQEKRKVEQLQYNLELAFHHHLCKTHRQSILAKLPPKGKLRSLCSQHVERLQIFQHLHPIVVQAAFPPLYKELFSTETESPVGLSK
The series is described as follows: (§1) Transrepression of recombinant human GAL4-DBD fused RORgammat LBD expressed in HEK293 cells after 20 hrs by luciferase reporter gene assay. Type of series: cell-based.

Series [3] addresses T3, Nuclear receptor ROR-gamma (Homo sapiens, UniProt P51449).
T3 sequence (P51449 whole entry): T2 sequence (whole entry)
The description is as §1. The class given is cell-based.

Series [4] in a line: Solubility of the compound in NaCl/HCl buffer at pH 1.2 by shake-flask method. The class given is physicochemical.
A short description of series [5]: Solubility of the compound in KH2PO4/Na2HPO4 buffer at pH 6.8 by shake-flask method. The class given is physicochemical.
For series [6], the target named is T4, Nuclear receptor ROR-gamma (Mus musculus, UniProt P51450).
T4 sequence (P51450 whole entry): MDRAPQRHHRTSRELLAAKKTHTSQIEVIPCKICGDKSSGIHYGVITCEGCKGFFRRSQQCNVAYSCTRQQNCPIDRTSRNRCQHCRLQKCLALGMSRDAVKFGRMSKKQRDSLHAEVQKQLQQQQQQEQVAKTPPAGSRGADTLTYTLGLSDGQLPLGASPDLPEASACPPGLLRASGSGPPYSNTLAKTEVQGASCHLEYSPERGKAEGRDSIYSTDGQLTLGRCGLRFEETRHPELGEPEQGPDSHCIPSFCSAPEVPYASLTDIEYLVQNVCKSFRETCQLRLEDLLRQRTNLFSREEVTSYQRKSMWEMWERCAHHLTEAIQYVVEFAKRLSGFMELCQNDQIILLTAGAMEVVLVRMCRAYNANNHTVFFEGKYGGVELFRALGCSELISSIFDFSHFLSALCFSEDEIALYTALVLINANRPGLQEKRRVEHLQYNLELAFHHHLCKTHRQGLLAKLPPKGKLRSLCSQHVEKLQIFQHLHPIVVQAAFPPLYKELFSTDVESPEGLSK
The series is described as follows: (§2) Transrepression of recombinant mouse GAL4-DBD fused RORgammat LBD expressed in HEK293 cells after 20 hrs by luciferase reporter gene assay. Type of series: cell-based.

Series [7] addresses T5, Nuclear receptor ROR-gamma (Mus musculus) (UniProt P51450).
T5 sequence (whole entry): T4 sequence (P51450 whole entry)
The description is as §2. Type of series: cell-based.

The target of series [8] is T4, Nuclear receptor ROR-gamma. Nature of the series: Transrepression of RORgammat in anti-CD3/CD28 stimulated C57BL/6 mouse CD4-positive T cells assessed as suppression of T cell differentiation to Th17 cells by measuring reduction in IL-17A level after 4 days by ELISA. Background: An ELISA detects its analyte on a solid surface through an enzyme-linked reagent.
Series [9] has as its target T6, Nuclear receptor ROR-alpha (Homo sapiens, UniProt P35398).
T6 sequence (P35398 whole entry): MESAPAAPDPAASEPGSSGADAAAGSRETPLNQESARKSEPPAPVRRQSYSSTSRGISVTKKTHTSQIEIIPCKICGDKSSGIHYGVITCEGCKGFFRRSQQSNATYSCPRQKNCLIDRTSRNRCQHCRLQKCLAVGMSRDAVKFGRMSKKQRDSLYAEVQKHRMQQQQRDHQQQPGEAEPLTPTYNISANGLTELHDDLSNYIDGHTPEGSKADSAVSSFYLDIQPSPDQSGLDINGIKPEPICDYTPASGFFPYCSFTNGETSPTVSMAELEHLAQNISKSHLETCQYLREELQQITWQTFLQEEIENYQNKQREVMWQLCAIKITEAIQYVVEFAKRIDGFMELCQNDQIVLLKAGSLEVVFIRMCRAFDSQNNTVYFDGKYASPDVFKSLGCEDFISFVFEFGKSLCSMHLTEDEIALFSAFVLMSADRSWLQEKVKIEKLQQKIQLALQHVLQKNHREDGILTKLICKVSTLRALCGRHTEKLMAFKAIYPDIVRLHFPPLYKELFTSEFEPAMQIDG
Nature of the series: Displacement of [3H]T0901317 from recombinant human GST-fused RORalpha LBD after 1 to 4 hrs by microbeta scintillation counting method. (In general: Displacement assays read how much labelled ligand stays bound in the presence of the test substance.)

Series [10] is described as follows: Stability in rat liver microsomes assessed as parent compound remaining after 2 hrs by LC-MS/MS analysis. The class given is ADME, microsome. The settings on record: read-out: Stability.
Series [11] is described as follows: Stability in human liver microsomes assessed as parent compound remaining after 2 hrs by LC-MS/MS analysis. The settings on record: read-out: Stability. Type of series: ADME, microsome.
The target of series [12] is T7, Oxysterols receptor LXR-alpha (Homo sapiens, UniProt Q13133).
T7 sequence (Q13133 whole entry): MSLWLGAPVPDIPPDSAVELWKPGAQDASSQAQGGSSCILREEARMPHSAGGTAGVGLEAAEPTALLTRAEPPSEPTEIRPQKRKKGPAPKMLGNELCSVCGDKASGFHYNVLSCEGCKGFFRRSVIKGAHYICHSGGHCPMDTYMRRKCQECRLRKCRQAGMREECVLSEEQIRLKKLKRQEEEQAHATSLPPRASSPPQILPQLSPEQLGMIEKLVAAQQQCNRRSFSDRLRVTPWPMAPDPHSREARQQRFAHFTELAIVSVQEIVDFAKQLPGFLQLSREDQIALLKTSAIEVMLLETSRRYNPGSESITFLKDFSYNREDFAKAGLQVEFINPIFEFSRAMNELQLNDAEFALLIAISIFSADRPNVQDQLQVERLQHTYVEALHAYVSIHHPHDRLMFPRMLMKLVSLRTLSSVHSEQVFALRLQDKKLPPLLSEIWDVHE
The series is described as follows: Transrepression of recombinant human GAL4-DBD fused LXRalpha LBD expressed in HEK293 cells after 20 hrs by luciferase reporter gene assay. Type of series: cell-based.

For series [13], the target named is T3, Nuclear receptor ROR-gamma. The series is described as follows: Displacement of [3H]-Digoxin from recombinant human GST-fused RORgammat LBD after 1 to 4 hrs by scintillation counting method.
Series [14] concerns the target T8, Oxysterols receptor LXR-beta (Homo sapiens, UniProt P55055).
T8 sequence (P55055 whole entry): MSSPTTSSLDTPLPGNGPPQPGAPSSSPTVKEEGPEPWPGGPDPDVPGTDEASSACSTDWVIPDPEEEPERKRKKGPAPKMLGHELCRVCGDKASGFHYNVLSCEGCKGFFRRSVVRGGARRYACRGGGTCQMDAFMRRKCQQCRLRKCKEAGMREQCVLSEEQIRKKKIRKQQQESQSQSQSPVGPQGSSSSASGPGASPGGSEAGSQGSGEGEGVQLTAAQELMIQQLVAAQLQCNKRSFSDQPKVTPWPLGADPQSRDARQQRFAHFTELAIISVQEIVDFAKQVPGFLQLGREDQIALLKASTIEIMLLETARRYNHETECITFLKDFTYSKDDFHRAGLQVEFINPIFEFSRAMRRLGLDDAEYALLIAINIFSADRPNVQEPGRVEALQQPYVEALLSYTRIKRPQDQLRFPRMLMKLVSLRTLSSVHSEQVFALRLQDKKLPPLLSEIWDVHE
The series is described as follows: Transrepression of recombinant human GAL4-DBD fused LXRbeta LBD expressed in HEK293 cells after 20 hrs by luciferase reporter gene assay. The class given is cell-based.

For orientation: IC50 means the concentration that gives 50% inhibition. One may read the solubility (thermodynamic) as the concentration in solution at equilibrium with solid. Broadly, the EC50 is the midpoint of the concentration-response curve. In the case of `CCS(=O)(=O)c1ccc(CC(=O)Nc2ccc(C(C)(C)C(=O)Nc3ccc(F)cc3)cc2)cc1`, the IC50 in series [1] was above 10000 nM; in series [3], 33 nM; in [6] it was 550 nM; in series [8], 1100 nM; in series [9], above 10000 nM; in series [13], below 30 nM. The Efficacy in series [2] came out at 93%; in [7], 78%. Also, the solubility (thermodynamic) in series [4] turned out to be 39 µM (≈ 18.8 µg/mL); in series [5], 31 µM (≈ 15 µg/mL). Also, the remaining at 2 h is 70% in series [10] and 75% in series [11]. Besides, the EC50 in [12] and in series [14] was above 30000 nM throughout.
